Consider one compound from PubChem BioAssay AID602443 (National Center for Advancing Translational Sciences (NCATS), 2012).

Converted amounts (≈) assume the structure as drawn.

As a reminder, the solubility is the concentration that dissolves in the medium under given conditions.

In this data set the test system is aqueous kinetic solubility. In words: High Content Assay for Compounds that inhibit the Assembly of the Perinucleolar Compartment: Aqueous Kinetic Solubility. From the text: The perinucleolar compartment (PNC) is a non-membrane-bound nuclear subdomain that is associated with but structurally distinct from the nucleolus. The PNC is a heritable trait, in which the number of PNCs per cell in daughter cells often mimics that of their mother cells. The PNC is heterogeneous in shape, is stable through interphase, disassembles during mitosis, and reassembles in early G1. The PNC is concentrated with newly synthesized RNA polymerase III (pol III) RNAs (MRP RNA, RNAse P H1 RNA, hY RNAs[hY1, 2, 5], Alu RNA, and SRP [7SL] RNA) and RNA binding proteins (nucleolin, PTB, CUG-BP, KSRP, Raver1, Raver2, and Rod).
Extensive in vitro studies have shown that the PNC is unique to tumor cells and preferentially forms in tumor cells derived from solid tissues. Examination of cancer cell lines from various origins and malignant capacities has shown that PNC prevalence correlates with the malignancy of tumors and has the potential to be developed as a pan-cancer prognostic marker.
This bioassay provides profiling data on aqueous kinetic solubility (PBS @ pH 7.4) of some of the lead compounds developed for this project.
NIH Chemical Genomics Center [NCGC]
NIH Molecular Libraries Probe Centers Network [MLPCN] […]
5. Concentration of the supernatant was determined by LC-UV or LC-MS/MS

On to `N=c1c2c(-c3ccccc3)c(-c3ccccc3)n(Cc3ccccc3)c2ncn1C1CCC(O)CC1` (stereo unspecified), for which the solubility is 150 µM (≈ 71.2 µg/mL).
